Read-outs that look alike come from different tables or passages of the source. Each block holds one molecule with its values, some of them ahead of it.
How the values were obtained:
[1] = tested on: Peripheral blood mononuclear cells (PBMCs) mixed with mitomycin C treated RPMI1788 cells; test: Mixed lymphocyte reaction (MLR) assay, 3H-thymidine uptake
Text: In the MLR assay PBMCs from two individuals are mixed together in tissue culture for several days. […] In the one-way MLR test, the mononuclear cells from one of the individuals are inactivated (usually by treatment with mitomycin C or irradiation), thereby allowing only the untreated remaining population of mononuclear cells, such as lymphocytes, to proliferate in response to foreign histocompatibility antigens.
The immunosuppressive effect of test compounds was also investigated using MLR assays. Peripheral blood mononuclear cells (PBMCs) were isolated from heparinized blood of healthy donors by density-gradient centrifugation over Lymphoprep. […] RPMI1788 cells were treated with 30 μg/mL mitomycin C for 20 min at 37° C., washed four times with medium, and finally suspended in complete RPMI medium to a density of 0.45×10^6 cells/mL. An amount of 100 μL of each cell suspension was mixed with 20 μL of diluted compound. The mixed cells were cultured at 37° C. for 6 days in 5% CO2. […] Thereafter, the cells were harvested on glass filter paper and the counts per minute (cpm) determined in a liquid scintillation counter.

[2] = molecular target: T1, PI3KCB (PI3K p110β/p85α (h)) (Homo sapiens, UniProt P42338); test: Commercial kinase activity assay (Millipore, HTRF); type: biochemical; settings: 10 μM test compound
T1 construct: purchased Millipore
Method: LOK (h) was incubated with 8 mM MOPS pH 7.0, 0.2 mM EDTA, 250 μM […], 10 mM MgAcetate and [γ-^33P-ATP] (specific activity approx. 500 cpm/pmol, concentration as required). The reaction was initiated by the addition of the MgATP mix. After incubation for 40 minutes at room temperature, the reaction was stopped by the addition of 3% phosphoric acid solution. 10 μL of the reaction was then spotted onto a P30 filtermat and washed three times for 5 minutes in 75 mM phosphoric acid and once in methanol prior to drying and scintillation counting. PI3K p110β/p85α (h) PI3K (p110β/p85α) (h) was incubated in assay buffer containing 10 μM phosphatidylinositol-4,5-bisphosphate and MgATP (concentration as required). The reaction was initiated by the addition of the MgATP mix. After incubation for 30 minutes at room temperature, the reaction was stopped by the addition of stop solution containing EDTA and biotinylated phosphatidylinositol-3,4,5-trisphosphate. Finally, detection buffer was added, which contains europium-labelled anti-GST monoclonal antibody, GST-tagged GRP1 PH domain and streptavidinallophycocyanin. The plate was then read in time-resolved fluorescence mode and the homogenous time-resolved fluorescence (HTRF®) signal determined according to the formula HTRF=10000×(Em665nm/Em620 nm). […]

[3] = molecular target: T2, LOK (h) (Homo sapiens, UniProt O94804); test: Commercial kinase activity assay (Millipore, 33P-ATP filter); type: biochemical; settings: 10 μM test compound
T2 construct: purchased Millipore
Method: (§1) LOK (h) was incubated with 8 mM MOPS pH 7.0, 0.2 mM EDTA, 250 μM […], 10 mM MgAcetate and [γ-^33P-ATP] (specific activity approx. 500 cpm/pmol, concentration as required). The reaction was initiated by the addition of the MgATP mix. After incubation for 40 minutes at room temperature, the reaction was stopped by the addition of 3% phosphoric acid solution. 10 μL of the reaction was then spotted onto a P30 filtermat and washed three times for 5 minutes in 75 mM phosphoric acid and once in methanol prior to drying and scintillation counting. PI3K p110β/p85α (h) PI3K (p110β/p85α) (h) was incubated in assay buffer containing 10 μM phosphatidylinositol-4,5-bisphosphate and MgATP (concentration as required). The reaction was initiated by the addition of the MgATP mix. After incubation for 30 minutes at room temperature, the reaction was stopped by the addition of stop solution containing EDTA and biotinylated phosphatidylinositol-3,4,5-trisphosphate. Finally, detection buffer was added, which contains europium-labelled anti-GST monoclonal antibody, GST-tagged GRP1 PH domain and streptavidinallophycocyanin. The plate was then read in time-resolved fluorescence mode and the homogenous time-resolved fluorescence (HTRF®) signal determined according to the formula HTRF=10000×(Em665nm/Em620 nm). YSK4 (h) YSK4 (h) was incubated with 8 mM MOPS pH 7.0, 0.2 mM EDTA, 250 […], 10 mM MgAcetate and [γ-^33P-ATP] (specific activity approx. 500 cpm/pmol, concentration as required). The reaction was initiated by the addition of the MgATP mix. After incubation for 40 minutes at room temperature, the reaction was stopped by the addition of 3% phosphoric acid solution. 10 μL of the reaction was then spotted onto a P30 filtermat and washed three times for 5 minutes in 75 mM phosphoric acid and once in methanol prior to drying and scintillation counting. PI4KA (PI4K alpha) The 2× PI4KA (PI4K alpha)/PI Lipid Kinase Substrate mixture was prepared in 20 mM Tris, pH 7.5, 0.4% Triton X-100, 5 mM MgCl2, 0.5 mM EGTA. The final 10 μL Kinase Reaction consisted of 75-300 ng PI4KA (PI4K alpha) and 100 μM PI Lipid Kinase Substrate in 7.5 mM HEPES, 10 mM Tris, pH 7.5, 0.2% Triton X-100, 2.5 mM MgCl2, 0.25 mM EGTA. After the 1 hour Kinase Reaction incubation, 5 μL of Detection Mix consisting of a europium labeled anti-ADP antibody, an Alexa Fluor® 647 labeled ADP tracer, and EDTA (to stop the kinase reaction) was added to the assay well. ADP formed by the kinase reaction (in the absence of an inhibitor) displaced the Alexa Fluor® 647 labeled ADP tracer from the antibody, resulting in a decrease in the TR-FRET signal. […] PI4KB (PI4K beta) The 2× PI4KB (PI4K beta)/PI Lipid Kinase Substrate mixture was prepared in 50 mM HEPES pH 7.5, 0.1% CHAPS, 1 mM EGTA, 4 mM MgCl2. […]

[4] = molecular target: T3, YSK4 (h) (Homo sapiens, UniProt Q56UN5); test: as above; type: biochemical; settings: 10 μM test compound
T3 construct: purchased Millipore
T3 sequence (Q56UN5 1-1328): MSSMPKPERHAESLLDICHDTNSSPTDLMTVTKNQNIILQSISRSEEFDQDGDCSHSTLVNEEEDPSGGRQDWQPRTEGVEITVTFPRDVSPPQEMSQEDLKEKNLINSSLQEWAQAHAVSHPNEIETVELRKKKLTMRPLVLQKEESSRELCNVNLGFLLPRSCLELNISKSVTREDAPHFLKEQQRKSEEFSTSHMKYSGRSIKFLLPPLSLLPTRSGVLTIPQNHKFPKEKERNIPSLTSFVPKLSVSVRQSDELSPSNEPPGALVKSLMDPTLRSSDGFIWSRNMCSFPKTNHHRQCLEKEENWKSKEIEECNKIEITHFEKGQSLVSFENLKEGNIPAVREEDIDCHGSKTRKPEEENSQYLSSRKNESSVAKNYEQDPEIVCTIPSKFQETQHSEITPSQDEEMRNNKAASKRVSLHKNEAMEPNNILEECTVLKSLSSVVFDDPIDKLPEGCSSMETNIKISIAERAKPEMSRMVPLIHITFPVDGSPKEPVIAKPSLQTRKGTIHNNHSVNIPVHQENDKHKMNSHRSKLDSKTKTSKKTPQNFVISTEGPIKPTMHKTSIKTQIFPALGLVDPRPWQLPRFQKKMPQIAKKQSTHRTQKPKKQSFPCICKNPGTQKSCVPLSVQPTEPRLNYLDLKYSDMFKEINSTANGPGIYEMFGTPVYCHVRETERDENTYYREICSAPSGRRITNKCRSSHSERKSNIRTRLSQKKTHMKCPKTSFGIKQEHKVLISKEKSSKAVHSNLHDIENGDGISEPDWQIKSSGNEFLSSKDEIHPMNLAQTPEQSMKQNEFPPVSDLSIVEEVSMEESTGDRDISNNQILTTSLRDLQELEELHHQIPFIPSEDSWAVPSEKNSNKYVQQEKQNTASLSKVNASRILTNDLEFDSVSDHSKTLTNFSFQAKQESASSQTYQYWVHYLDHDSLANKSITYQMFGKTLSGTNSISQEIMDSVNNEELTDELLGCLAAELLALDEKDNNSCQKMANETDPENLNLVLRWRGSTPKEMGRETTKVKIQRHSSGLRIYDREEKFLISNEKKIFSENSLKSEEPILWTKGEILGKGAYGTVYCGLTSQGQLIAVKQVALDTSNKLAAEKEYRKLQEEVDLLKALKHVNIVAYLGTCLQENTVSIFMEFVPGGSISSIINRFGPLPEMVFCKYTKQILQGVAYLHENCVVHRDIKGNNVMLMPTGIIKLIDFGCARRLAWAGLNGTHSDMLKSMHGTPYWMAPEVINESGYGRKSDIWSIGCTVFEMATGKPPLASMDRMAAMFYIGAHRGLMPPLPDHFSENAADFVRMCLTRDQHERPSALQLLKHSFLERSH
Method: as §1

[5] = molecular target: T4, PAK1 (Homo sapiens, UniProt Q13153); test: Commercial kinase activity assay (Invitrogen, fluorescence); type: biochemical; settings: 10 μM test compound
T4 construct: made in house; host or cells: E. coli BL21-derived host (T7 phage) or HEK-293

[6] = molecular target: T5, PI4KA (PI4K alpha) (Homo sapiens, UniProt P42356); test: Commercial kinase activity assay (Invitrogen, ADP TR-FRET); type: biochemical; settings: 10 μM test compound
T5 construct: purchased Invitrogen

[7] = molecular target: PI4KIIIβ (PI4KB, PI4K beta) (Homo sapiens, UniProt Q9UBF8); test: as above; settings: for inhibition at 10 µM: read-out: % inhibition of PI4KIIIβ @ 10 μM
Method: PI4KB (PI4K beta) The 2× PI4KB (PI4K beta)/PI Lipid Kinase Substrate mixture was prepared in 50 mM HEPES pH 7.5, 0.1% CHAPS, 1 mM EGTA, 4 mM MgCl2. […] After a 60-minute development reaction incubation at room temperature, the fluorescence was read on plate reader and the data analyzed.

[8] = tested on: murine splenocytes stimulated with α-CD3 antibody; test: Cytokine secretion after α-CD3 stimulation; type: cell-based, Balb/C mice; settings: Mus musculus, Splenocyte, 24 h
Method: The ability of test compounds to inhibit cytokine release by murine splenocytes after stimulation with α-CD3 antibody was also investigated.
2×10^6 splenocytes from Balb/C female mice, 8-10 weeks old in 220 μl of complete medium were stimulated with 0.1 μg of hamster anti mouse CD3ε antibody in presence of various concentrations of test compounds. After 24 h of incubation at 37° C., 5% CO2, supernatant were collected and cytokine titers were determined by flow cytometry according manufacturer protocols (MCB United States, Arlington, Mass., USA).
The results are shown in FIG. 1 compared to a DMSO negative control (▾). […].

[9] = tested on: collagen-induced arthritis; test: Collagen-induced arthritis model; type: in vivo, DBA1 male mice; settings: 40 mg/kg/d oral gavage
Method: The activity of test compound in an in vivo model, the collagen-induced arthritis model, was investigated. […] DBA1 male mice, 8-10 weeks old, were distributed in 2 groups according to the treatment. Twelve animals received daily treatment with vehicle (1% methylcellulose), twelve others received compound (3) at 40 mg/kg/d in 1% methylcellulose. The treatment initiation started the day before the intradermal injection at the base of the tail of 100 μg of emulsified chicken collagen II in presence of complete Freund adjuvant and added heat-killed Mycobacterium butyricum. Daily inspection of the mice was performed to weight animals and quantify disease score according to the following scale (score 0: normal; score 1: redness and/or swelling in one joint; score 2: redness and/or swelling in more than one joint; score 3: redness and/or swelling in the entire paw; score 4: deformity and/or ankylosis). On the day of sacrifice (day 42) serum were collected and anti-collagen II antibody titers were determined by ELISA. Joints were harvested, fixed in 6% paraformaldehyde, decalcified in formic acid 6% for 48 h, sliced and stained by hematoxylin and eosin staining. Hyperplasia of the synovium, infiltration of mono and polymorphonuclear cells and pannus formation parameters were scored blindly.

[10] = tested on: cardiac allograft rejection; test: Cardiac allograft transplantation model, treatment day -1 to day 30 (Examples 7 and 8); type: in vivo, mice (C57BL/6 donor, Balb/c recipient); settings: Example 8
Method: Inbreed C57BL/6 H-2b and Balb/c H-2d female mice, 8-10 weeks old, 20-25 g, were used as donor and recipient, respectively. Heterotopic heart transplantation was performed by implanting the donor heart on the neck of recipients using conventional microsurgery techniques. Graft beating was checked daily by inspection and palpation. Cessation of beating indicated graft rejection, which was confirmed by histological examination. Housing and all experimental animal procedures were approved by the Institutional Animal Care and Research Advisory Committee of the KU Leuven.

[11] = tested on: cardiac allograft rejection; test: Cardiac allograft transplantation and tolerance model, treatment day 0 to day 30 (Example 9)
Text: The activity of test compound in a mouse model of cardiac allograft transplantation experiment was investigated. […] Animals with beating graft at day 60 were rechallenged with a second graft from the same strain donor or from a third party donor.
To evaluate the operational tolerance phenotype, animals with functional graft at day 60 were challenged with a second graft from the same donor strain or from a third party. No treatment was applied.
Inbreed C57BL/6 H-2^b and Balb/c H-2^d female mice, 8-10 weeks old, 20-25 g, were used as donor and recipient, respectively. Heterotopic heart transplantation was performed by implanting the donor heart on the neck of recipients using conventional microsurgery techniques. Graft beating was checked daily by inspection and palpation. Cessation of beating indicated graft rejection. The third party donor was C3H H-2^k female mice, 8-10 weeks old, 20-25 gr.
Treatment started the day of transplantation (day 0) until day 30 post transplantation.

[12] = RPMI-1788, 144 h, read-out: IC50 MLR, 6 days culture
[13] = animals with functional graft at day 60, no treatment, n=2

PI4KIIIβ (PI4KB, PI4K beta), sequence (Q9UBF8 whole entry): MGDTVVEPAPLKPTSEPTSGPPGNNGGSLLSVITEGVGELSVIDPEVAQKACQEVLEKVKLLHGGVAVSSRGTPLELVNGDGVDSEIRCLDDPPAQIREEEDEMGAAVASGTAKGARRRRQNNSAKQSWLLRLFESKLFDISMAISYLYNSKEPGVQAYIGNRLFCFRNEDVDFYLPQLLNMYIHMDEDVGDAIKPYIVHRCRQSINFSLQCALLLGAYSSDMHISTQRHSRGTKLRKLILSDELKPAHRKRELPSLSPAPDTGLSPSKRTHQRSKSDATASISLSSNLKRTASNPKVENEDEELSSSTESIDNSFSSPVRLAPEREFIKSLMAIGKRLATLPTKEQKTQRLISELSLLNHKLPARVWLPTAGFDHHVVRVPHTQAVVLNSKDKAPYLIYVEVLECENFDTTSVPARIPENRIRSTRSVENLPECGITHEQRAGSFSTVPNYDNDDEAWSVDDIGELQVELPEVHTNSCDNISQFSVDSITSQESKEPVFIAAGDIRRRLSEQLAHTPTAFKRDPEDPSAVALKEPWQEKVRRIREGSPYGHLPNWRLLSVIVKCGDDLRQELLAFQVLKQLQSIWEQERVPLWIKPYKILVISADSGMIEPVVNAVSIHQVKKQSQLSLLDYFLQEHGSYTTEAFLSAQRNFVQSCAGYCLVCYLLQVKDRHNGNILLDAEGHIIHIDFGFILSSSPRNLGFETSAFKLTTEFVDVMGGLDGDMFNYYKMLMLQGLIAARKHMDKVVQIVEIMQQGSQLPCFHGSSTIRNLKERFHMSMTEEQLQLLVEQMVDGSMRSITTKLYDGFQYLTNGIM
T2 sequence (O94804 whole entry): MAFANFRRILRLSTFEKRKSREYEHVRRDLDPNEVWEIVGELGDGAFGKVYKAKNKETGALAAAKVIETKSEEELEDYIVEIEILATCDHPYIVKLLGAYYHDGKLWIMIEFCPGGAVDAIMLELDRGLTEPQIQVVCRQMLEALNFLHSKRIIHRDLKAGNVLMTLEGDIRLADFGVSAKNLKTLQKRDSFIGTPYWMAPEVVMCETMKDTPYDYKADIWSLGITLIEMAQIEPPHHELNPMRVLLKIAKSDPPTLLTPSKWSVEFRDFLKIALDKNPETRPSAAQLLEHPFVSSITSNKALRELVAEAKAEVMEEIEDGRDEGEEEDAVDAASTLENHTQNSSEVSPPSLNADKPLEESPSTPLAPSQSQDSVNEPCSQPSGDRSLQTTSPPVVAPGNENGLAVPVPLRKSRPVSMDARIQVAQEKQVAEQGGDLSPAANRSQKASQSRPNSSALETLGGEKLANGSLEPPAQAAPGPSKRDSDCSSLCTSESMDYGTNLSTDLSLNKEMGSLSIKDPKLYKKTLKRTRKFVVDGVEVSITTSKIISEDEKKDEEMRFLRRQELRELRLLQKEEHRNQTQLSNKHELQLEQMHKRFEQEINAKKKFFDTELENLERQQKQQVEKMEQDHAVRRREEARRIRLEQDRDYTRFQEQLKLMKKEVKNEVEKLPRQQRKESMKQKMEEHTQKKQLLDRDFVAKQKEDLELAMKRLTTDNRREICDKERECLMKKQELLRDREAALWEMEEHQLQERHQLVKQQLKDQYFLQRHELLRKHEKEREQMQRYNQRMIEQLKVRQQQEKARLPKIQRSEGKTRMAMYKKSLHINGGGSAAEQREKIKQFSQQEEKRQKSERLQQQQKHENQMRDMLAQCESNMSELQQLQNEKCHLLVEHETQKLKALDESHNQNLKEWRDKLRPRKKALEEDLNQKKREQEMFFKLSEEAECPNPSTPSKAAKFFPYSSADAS
T4 sequence (Q13153 whole entry): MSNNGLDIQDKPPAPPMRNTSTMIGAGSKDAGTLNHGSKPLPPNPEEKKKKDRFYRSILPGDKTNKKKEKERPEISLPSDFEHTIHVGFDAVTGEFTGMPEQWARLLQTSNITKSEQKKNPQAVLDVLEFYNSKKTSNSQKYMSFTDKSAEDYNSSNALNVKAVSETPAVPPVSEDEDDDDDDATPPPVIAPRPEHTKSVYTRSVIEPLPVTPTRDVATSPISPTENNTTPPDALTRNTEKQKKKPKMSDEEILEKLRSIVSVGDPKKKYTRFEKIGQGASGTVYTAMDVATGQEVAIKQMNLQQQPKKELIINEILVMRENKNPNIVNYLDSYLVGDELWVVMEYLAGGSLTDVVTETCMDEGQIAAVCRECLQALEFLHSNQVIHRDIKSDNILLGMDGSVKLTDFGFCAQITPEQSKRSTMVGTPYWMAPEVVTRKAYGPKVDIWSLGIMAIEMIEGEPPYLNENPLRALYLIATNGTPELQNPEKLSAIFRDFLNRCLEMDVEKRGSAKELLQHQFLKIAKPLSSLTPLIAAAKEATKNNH
T5 sequence (P42356 whole entry): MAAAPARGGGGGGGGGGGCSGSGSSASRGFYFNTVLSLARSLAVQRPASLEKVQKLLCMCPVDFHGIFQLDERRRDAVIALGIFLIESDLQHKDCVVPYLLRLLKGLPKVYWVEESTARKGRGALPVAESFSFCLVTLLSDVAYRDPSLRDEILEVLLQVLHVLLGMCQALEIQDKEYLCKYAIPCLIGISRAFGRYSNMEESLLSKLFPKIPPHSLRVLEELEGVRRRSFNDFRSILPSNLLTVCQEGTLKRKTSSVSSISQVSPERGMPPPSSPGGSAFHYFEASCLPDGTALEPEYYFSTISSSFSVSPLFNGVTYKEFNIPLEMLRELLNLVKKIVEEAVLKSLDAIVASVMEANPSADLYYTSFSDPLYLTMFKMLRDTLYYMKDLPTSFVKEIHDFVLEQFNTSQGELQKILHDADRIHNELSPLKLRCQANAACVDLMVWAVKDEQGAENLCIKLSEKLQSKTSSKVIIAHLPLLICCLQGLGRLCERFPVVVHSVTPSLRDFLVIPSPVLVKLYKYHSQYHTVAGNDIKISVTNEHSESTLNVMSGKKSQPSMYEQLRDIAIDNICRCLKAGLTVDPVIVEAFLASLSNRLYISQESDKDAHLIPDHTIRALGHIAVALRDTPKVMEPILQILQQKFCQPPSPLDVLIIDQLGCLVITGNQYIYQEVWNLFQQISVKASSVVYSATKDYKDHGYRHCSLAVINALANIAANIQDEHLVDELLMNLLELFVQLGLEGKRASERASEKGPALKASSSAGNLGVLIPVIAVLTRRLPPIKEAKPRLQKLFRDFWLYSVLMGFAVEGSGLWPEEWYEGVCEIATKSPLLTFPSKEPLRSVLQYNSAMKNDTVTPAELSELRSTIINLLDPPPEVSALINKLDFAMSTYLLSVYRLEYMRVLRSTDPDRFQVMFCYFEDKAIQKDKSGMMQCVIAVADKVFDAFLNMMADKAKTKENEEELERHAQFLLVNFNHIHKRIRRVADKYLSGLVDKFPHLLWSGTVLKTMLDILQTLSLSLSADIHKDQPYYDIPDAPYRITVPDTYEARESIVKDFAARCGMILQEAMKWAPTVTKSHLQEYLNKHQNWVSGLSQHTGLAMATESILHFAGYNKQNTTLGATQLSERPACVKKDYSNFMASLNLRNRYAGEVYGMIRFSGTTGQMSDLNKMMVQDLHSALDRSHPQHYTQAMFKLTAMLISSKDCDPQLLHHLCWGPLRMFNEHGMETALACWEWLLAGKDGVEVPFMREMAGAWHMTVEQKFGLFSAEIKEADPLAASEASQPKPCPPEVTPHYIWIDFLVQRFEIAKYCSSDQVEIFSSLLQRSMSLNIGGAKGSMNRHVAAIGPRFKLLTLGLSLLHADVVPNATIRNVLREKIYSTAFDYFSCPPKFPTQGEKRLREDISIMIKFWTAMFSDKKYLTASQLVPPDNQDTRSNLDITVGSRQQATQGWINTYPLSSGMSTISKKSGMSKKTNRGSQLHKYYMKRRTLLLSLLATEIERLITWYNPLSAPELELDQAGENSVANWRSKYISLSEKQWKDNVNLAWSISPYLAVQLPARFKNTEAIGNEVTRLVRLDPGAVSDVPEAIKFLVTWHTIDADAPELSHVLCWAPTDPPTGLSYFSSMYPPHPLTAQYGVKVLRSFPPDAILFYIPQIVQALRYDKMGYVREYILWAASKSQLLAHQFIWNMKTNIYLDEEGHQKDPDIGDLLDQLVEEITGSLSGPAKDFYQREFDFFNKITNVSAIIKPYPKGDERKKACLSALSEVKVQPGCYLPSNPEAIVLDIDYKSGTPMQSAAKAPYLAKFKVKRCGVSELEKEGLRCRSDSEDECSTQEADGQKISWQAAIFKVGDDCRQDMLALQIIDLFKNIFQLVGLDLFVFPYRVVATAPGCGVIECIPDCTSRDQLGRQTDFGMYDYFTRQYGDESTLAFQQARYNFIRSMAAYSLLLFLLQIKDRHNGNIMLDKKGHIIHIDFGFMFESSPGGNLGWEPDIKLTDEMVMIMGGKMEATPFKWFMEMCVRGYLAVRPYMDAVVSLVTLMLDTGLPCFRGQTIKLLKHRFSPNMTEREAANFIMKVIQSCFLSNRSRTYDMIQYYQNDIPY

SMILES: CC(=O)Nc1nc(C)c(-c2ccc(Cl)c(S(=O)(=O)NCCO)c2)s1 [PIK93, reference compound]
- IC50 [1, 12]: 0.401 µM

SMILES: COc1ccc(-c2c(C)nn3c(NCCN4CCOCC4)cc(C)nc23)cc1OC [T-00127-HEV1, reference compound]
- IC50 ([1]; RPMI-1788, 144 h, read-out: IC50 MLR): 0.842 µM

- Kinase activity [2]: 82 percentage of control
- Kinase activity [3]: 98 percentage of control
- Kinase activity [4]: 79 percentage of control
- Kinase activity [5]: 108 percentage of control
- Kinase activity [6]: 90 percentage of control
- IC50 [7]: 0.0143 µM
- inhibition at 10 µM [7]: 99.5%
SMILES: Cc1cccc(NC(=O)N2CCN(c3nc(N)nc4sc(-c5cccnc5)nc34)CC2)c1 [formula (2), 4-[5-amino-2-(pyridin-3-yl)thiazolo[5,4-d]pyrimidin-7-yl]-N-m-tolylpiperazine-1-carboxamide]

SMILES: Cc1ccc(NC(=O)N2CCN(c3nc(N)nc4sc(-c5cccnc5)nc34)CC2)cc1 [formula (3)]
- IC50 ([8]; read-out: IC50 for inhibition of IFNγ release): < 0.001 µM
- IC50 ([8]; read-out: IC50 for inhibition of IL2 release): < 0.001 µM
- histological scores (hyperplasia, infiltration, pannus) ([9]; joints day 42): reduced
- onset of arthritic symptoms ([9]; preventive, vs vehicle): delay the onset of arthritic symptoms
- symptom severity ([9]; preventive, vs vehicle): decrease symptom severity
- anti-CII IgG titre ([9]; serum day 42): reduced
- Surviving days (cardiac graft) ([10]; 20 mg/kg/d daily gavage, individual animals, 20 mg/kg/day): up to 13 days
- grafts continuously functioning after stopping the treatment on day 30 ([10]; 40 mg/kg per day): 3/4
- grafts with continuous survival while treatment continued ([10]; 40 mg/kg per day): 4/6
- grafts with prolonged survival at day 30 ([11]; Example 9, each group (40, 50, 60 mg/kg/d)): 3 out of 6
- day of rejection of second graft from third party donor [11, 13]: 8 days
- time second graft from same donor strain was functional [11, 13]: more than 90 days

- IC50 [7]: 0.0218 µM
- inhibition at 10 µM [7]: 95%
SMILES: Nc1nc(N2CCN(C(=O)COc3ccc(F)cc3)CC2)c2nc(-c3cccnc3)sc2n1 [formula (4)]
- IC50 [1, 12]: < 0.05 µM
- IC50 ([1]; read-out: IC50 MLR, 6 days culture): 0.025 µM

Reference: patent US9301961B2, “Autoimmune and inflammatory disorder therapy” (Katholieke Universiteit Leuven, K.U. Leuven R&D, priority 2011, dated 2016)
